Drawing on PubChem BioAssay (NCI), this text covers TGI and GI50 for 18 compounds.

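Dose response: 5 concentrations. Exposure: 48 h. Format: 96-well plates. Endpoint: linear interpolation; highest concentration if not reached. Here, GI50 denotes the concentration required for 50% inhibition of growth. At the TGI there is no net growth.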 Some results are limits rather than exact numbers.

What all share (experiment): inhibition of tumour cell growth, NCI panel, 48 h
Test [1] deals with MALME-3M melanoma.
In test [2] the test system is CCRF-CEM leukemia.
Test [3] deals with NCI/ADR-RES ovarian.
For test [4], the system named is UACC-62 melanoma.
Test [5] concerns SN12C renal.
Test [6] concerns SF-539 CNS.
Test [7] concerns TK-10 renal.
Test [8] deals with U251 CNS.
In test [9] the test system is HOP-92 NSCLC.
Test [10] concerns SF-268 CNS.
Test [11] relates to SW-620 colon.
The subject of test [12] is OVCAR-3 ovarian.
Test [13] concerns NCI-H23 lung.
Test [14] deals with HL-60(TB) leukemia.
Test [15] concerns A549 NSCLC.
In test [16] the test system is OVCAR-8 ovarian.
Test [17] deals with A498 renal.
For test [18], the system named is MDA-MB-231 breast.

Regarding `COc1ccc(-c2nc(-c3cnccn3)n(C3OC(CO)C(O)C3O)n2)cc1` (stereo not drawn), the TGI in test [1], in [2], in test [3], in test [4], in [5] and in test [6] was over 10 µM throughout. The TGI in test [7], in test [8], in test [9], in test [10], in test [11] and in [12] was over 10 µM throughout. Moreover, the TGI in test [13], in [14], in test [15] and in [16] was over 10 µM each time.

As for `CCOC(=O)C1=C(OC(OCC)C(CC)[Se]c2ccccc2)CCC1` (stereo not drawn), the TGI in [1] is 56.7 µM; in test [2], 36.2 µM; in test [4] it was 81.1 µM; in test [5] it was 47.2 µM; in test [6], 37.4 µM; in test [7], over 100 µM. Also, the TGI is 25.3 µM in test [8]; 45.8 µM in [9]; 36.8 µM in [10]; over 100 µM in test [17]; 69.3 µM in test [12]; 27.5 µM in test [13]. Besides, the TGI in [14] was 39.1 µM; in test [15], over 100 µM; in test [16], over 100 µM.

On to `O=C(NCCN1CCCCC1)c1cccc(I)c1`, for which the TGI in [2], in test [3], in test [4], in [5], in test [6] and in test [7] was over 100 µM each time. For the same compound, the TGI in test [8], in test [9], in test [10], in test [17], in test [11] and in [12] was over 100 µM throughout. Moreover, the TGI in test [13], in test [14], in [15] and in test [16] was over 100 µM in each case.

With `CN1CCc2ccccc2C(C(=O)c2ccc3c(c2)OCO3)C1=O` (stereo not drawn), the TGI in test [1], in test [2], in [4], in [5], in test [7] and in test [8] was over 100 µM in each case. For the same compound, the TGI in [9], in [10], in [17], in test [11], in test [12] and in test [13] was over 100 µM throughout. Moreover, the TGI in test [14], in test [15] and in test [16] was over 100 µM each time.

For the compound `COc1ccc(/C=C\c2cc(OC)c(OC)c(OC)c2)cc1`, the TGI in [1] was over 100 µM; in test [2] it was over 100 µM; in test [4], over 100 µM; in test [5] it was over 100 µM; in [6], 0.00384 µM; in test [8], 1.25 µM. In addition, the TGI in test [10] was over 100 µM; in test [17] it was 13.2 µM; in [12], 0.000152 µM; in [13] it was 0.0118 µM; in test [15], over 100 µM; in test [16], over 100 µM. Besides, the GI50 in test [10] is 0.0443 µM.

Consider `CC(Cn1c2c(c3cc(O)ccc31)CCc1ccc(O)cc1-2)N(C)C` (stereo not drawn), for which the TGI in [1] was 30.8 µM; in test [2] it was over 100 µM; in [3] it was 41.9 µM; in test [4], 35.9 µM; in test [5] it was 68.9 µM; in test [6], 32.1 µM. Further, the TGI is 37.1 µM in [7]; 59.4 µM in [18]; over 100 µM in test [8]; 53.2 µM in [10]; 53.7 µM in [17]; 55 µM in test [11]. Besides, the TGI in test [12] is 30.1 µM; in test [13] it was 41.2 µM; in test [14], over 100 µM; in test [16], 33.2 µM.

With `COc1cc([C@@H]2c3cc4c(cc3[C@@H](NCc3cccc(C#N)c3)C3COC(=O)[C@@H]32)OCO4)cc(OC)c1O` (stereo partly drawn), the TGI in test [1] was 9.58 µM; in [2] it was over 100 µM; in test [4], 2.93 µM; in [5], 2.93 µM; in test [6], 1.94 µM; in [7], 6.84 µM. Besides, the TGI in [8] was 1.93 µM; in test [9] it was 9.83 µM; in test [10], over 100 µM; in [17] it was 4.27 µM; in test [11], 11.1 µM; in test [12], 8.47 µM. Besides, the TGI in test [13] turned out to be 1.76 µM; in [14], 1.51 µM; in [15] it was 1.91 µM; in test [16] it was 4.56 µM.

For `C=C1C2=C(CCCC2)C(=O)OC12CCCCC2`, the TGI in [1], in [2], in test [4], in test [5], in test [6] and in [7] was over 100 µM in each case. In addition, the TGI in test [8] is over 100 µM; in [9] it was 77.9 µM; in test [10], over 100 µM; in [11], over 100 µM; in test [12], over 100 µM; in test [13], over 100 µM. The TGI in test [14], in [15] and in test [16] was over 100 µM in each case.

Regarding `CCOC(=O)CCC(NC(=O)c1ccc(NC(OC)c2nc3cc(C(F)(F)F)ccc3nc2-c2ccccc2)cc1)C(=O)OCC` (stereo not drawn), the TGI was 31.3 µM in [1]; over 21.7 µM in test [2]; 34.2 µM in [4]; 28.2 µM in test [5]; 26.1 µM in test [6]; 38.4 µM in test [7]. For the same compound, the TGI in [8] turned out to be 29.8 µM; in [9], 30.3 µM; in test [10] it was 30.9 µM; in [17], 34.5 µM; in test [11], 20.7 µM; in test [12], 35.8 µM. The TGI in test [13] is 31.5 µM; in [15], 39.4 µM; in test [16] it was 29.6 µM.

For `COc1ccc2[nH]c3c(c2c1)[C@H]1CCC(C(C)(C)C)C[C@H]1[C@H]1C(=O)N(c2ccccc2)C(=O)[C@@H]31` (stereo partly drawn), the TGI in test [1] was 40.4 µM; in [2], over 52 µM; in test [4] it was over 100 µM; in test [5], over 44.5 µM; in test [6], 18.1 µM; in test [7], over 74.1 µM. The TGI in [8] is 19.2 µM; in test [9], 21 µM; in [10], over 48.2 µM; in test [17], 44.1 µM; in test [11] it was over 100 µM; in test [12], over 58.9 µM. For the same compound, the TGI in test [13] is over 52.1 µM; in test [14] it was over 100 µM; in test [15], over 75.8 µM; in test [16], 28.1 µM.

Take `O=[N+]([O-])c1cccc(Nc2nc(Cl)nc(Cl)n2)c1`: the TGI in test [1], in [2], in test [4], in test [5], in test [6] and in test [8] was over 100 µM throughout. The TGI in [10], in test [11], in test [12], in [13], in test [15] and in test [16] was over 100 µM each time.

For the compound `CCCCOC/N=C(/N)NC#N`, the TGI in test [1], in test [4], in [5], in test [6], in [7] and in test [8] was over 100 µM each time. For the same compound, the TGI is over 100 µM in test [9]; over 100 µM in test [10]; over 100 µM in test [17]; 34.3 µM in [11]; over 100 µM in [12]; over 100 µM in [13]. Further, the TGI in test [14], in [15] and in test [16] was over 100 µM each time.

With `Cc1ccc(-c2cc(-c3ccccc3)c(C#N)c(=O)[nH]2)cc1`, the TGI in test [1], in test [2], in test [4], in test [5], in [6] and in [7] was over 100 µM each time. Moreover, the TGI in [8], in test [9], in test [10], in [17], in test [11] and in test [12] was over 100 µM in each case. In addition, the TGI in test [13], in [14], in test [15] and in test [16] was over 100 µM each time.

Take `COc1ccc(C2Cc3cc(OC)c(OC)c(OC)c3C2)cc1` (stereo not drawn): the TGI in test [1], in [2], in test [4], in [5], in test [6] and in test [7] was over 100 µM throughout. For the same compound, the TGI in [8], in test [10], in test [17], in test [11], in test [12] and in test [13] was over 100 µM each time. Besides, the TGI in [15] is 76.2 µM; in test [16] it was over 100 µM.

Regarding `CCCNCCCCC(NC(C)=O)C(=O)NCc1ccccc1` (stereo not drawn), the TGI in test [1], in [2], in [4], in test [5], in test [6] and in test [7] was over 100 µM each time. Besides, the TGI in test [8], in test [9], in test [10], in test [17], in [11] and in test [12] was over 100 µM in each case. Also, the TGI in test [13], in test [15] and in [16] was over 100 µM throughout.

Consider `CCCc1cc(OC(=O)c2c(O)cc(OC)cc2CCC)cc(O)c1C(=O)O`, for which the TGI in [1] is 42.3 µM; in [2] it was 95.4 µM; in test [4], 78.1 µM; in test [6] it was 34.7 µM; in [7] it was over 100 µM; in [8], 68.4 µM. The TGI in test [9] was 39 µM; in test [17], 98.8 µM; in [11], over 100 µM; in test [12] it was 61.2 µM; in test [13], 42.8 µM; in test [14], 52.7 µM. In addition, the TGI in test [15] and in test [16] was over 100 µM in each case.

On to `COC(=O)/C=C(\C)CCC1SC1(C)C` (stereo not drawn), for which the TGI in test [1], in test [2], in [4], in [5], in test [6] and in [7] was over 100 µM in each case. Moreover, the TGI in test [8], in test [10], in test [17], in test [11], in test [13] and in test [14] was over 100 µM throughout. Besides, the TGI in test [15] and in [16] was over 100 µM in each case.

Turning to `CCCCCCCCC(O)c1ccc(/C=C\C(O)CCCC(=O)O)s1` (stereo not drawn), the TGI in [1], in test [2], in test [4], in [5], in test [6] and in [7] was over 100 µM in each case. The TGI in test [8], in [9], in test [10], in test [11], in [12] and in [13] was over 100 µM throughout. In addition, the TGI in [14], in [15] and in [16] was over 100 µM each time.
